From ChEMBL document CHEMBL5728931, “Inhibitors of phosphoglycerate dehydrogenase (PHGDH) and uses thereof” (2022) come the findings set out here.

Molecules are shown by their SMILES.

The test concerns the target T1, D-3-phosphoglycerate dehydrogenase (Homo sapiens, UniProt O43175).
T1 sequence (O43175 whole entry): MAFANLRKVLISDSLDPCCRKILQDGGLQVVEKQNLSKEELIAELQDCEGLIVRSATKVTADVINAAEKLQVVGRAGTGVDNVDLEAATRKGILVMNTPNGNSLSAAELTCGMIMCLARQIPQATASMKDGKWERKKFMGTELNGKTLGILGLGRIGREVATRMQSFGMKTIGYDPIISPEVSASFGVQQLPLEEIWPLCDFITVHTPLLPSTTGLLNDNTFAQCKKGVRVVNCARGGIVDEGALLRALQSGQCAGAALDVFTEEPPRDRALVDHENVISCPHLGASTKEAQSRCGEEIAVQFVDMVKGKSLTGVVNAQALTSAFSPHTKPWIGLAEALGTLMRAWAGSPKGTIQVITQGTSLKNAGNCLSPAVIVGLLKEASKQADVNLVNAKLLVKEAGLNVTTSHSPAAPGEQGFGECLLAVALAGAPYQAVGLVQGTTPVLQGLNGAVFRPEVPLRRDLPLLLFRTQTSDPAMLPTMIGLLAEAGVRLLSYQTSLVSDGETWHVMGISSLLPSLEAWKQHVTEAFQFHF
The experiment in a line: Enzyme Assay: PHGDH assay buffer contained 50 mM TEA pH 8.0, 10 mM MgCl2, 0.05% BSA, and 0.01% Tween-20. PHGDH enzyme buffer consisted of assay buffer with 20 nM PHGDH and 0.2 mg/mL diaphorase. PHGDH substrate buffer contained 0.3 mM NAD 1.25 mM glutamate, 0.1 mM 3-phosphoglycerate, 0.2 mM resazurin, 1 μM PSAT1, and 1 μM PSPH. qHTS was performed in 1536-well plates dispensed with a BioRAPTR FRD. Each well contained equal volumes of substrate buffer […]. Plates were read at 0 minutes and 20 minutes at room temperature with a ViewLux uHTS Microplate Imager (PerkinElmer). Follow-up assays were performed in black 384-well plates (Greiner) in 20 μL of enzyme buffer to which compounds were added in dose-response with an HP D300 digital dispenser (Hewlett-Packard), followed by addition of 20 μL of substrate buffer. Plates were incubated at room temperature (25° C.) and read at 0 and 20 minutes with a Spectramax M5 plate reader (Molecular Devices) in fluorescence intensity mode with a λex=550 nm and λem=600 nm (emission cutoff=590 nm). Background: The colour change of resazurin is a common sign of viable cells or microbes.

In turn, `Cc1cc(C)nc(NC(=S)N2CCN(c3cncnc3)CC2)c1` returned an IC50 above 20 µM.

The IC50 is the concentration that gives 50% inhibition. The low end stands for higher potency, the high end for lower potency.
